Results on seven compounds are retold here after patent EP0219144A1, “Diphenyl ether herbicides” (SHELL INTERNATIONALE RESEARCH MAATSCHAPPIJ B.V., priority 1985, dated 1987).

Molecules are shown by their SMILES.

A short description of the data set: physchem. The following applies: for half-life: 25% 1,4-dioxan. In kind it is physicochemical. The procedure:
The hydrolytic stability of the compounds of this invention was compared with representative examples of other phenoxy phthalides specifically described in Applicants' earlier EPA 145078. This property was evaluated by determining the half-life (in hours) at pH7.0 and 9.0 in 25% 1,4-dioxan at 39°C. The results of these tests are set out in Table I below, in which the test compounds are identified by reference to the substituent A in the following formula: [drawing 12] 'N.D.D.' = No detectable decomposition over a 200 hour period

A word on the half-life: it is the time in which the quantity being followed falls by half. Consider `CC1OC(=O)c2ccc(Oc3ccc(C(F)(F)F)cc3Cl)cc21` (centres unmarked) [CH(CH3), H, (2'-chloro-9'-trifluoro-methylphenoxy)-3-methyl phthalide, reference compound], for which the half-life is 1060 h (pH 7) and 11 h (pH 9).
With `CC1(C)OC(=O)c2ccc(Oc3c(Cl)cc(C(F)(F)F)cc3Cl)cc21` [C(CH3)2, Cl], the “Half-Life pH 7.0” value (pH 7) is given as “NDD”. The “Half-Life pH 9.0” value (pH 9) was “NDD”.
In the case of `CC1(C)OC(=O)c2ccc(Oc3ccc(C(F)(F)F)cc3Cl)cc21` [C(CH3)2, H, 5-(2'-Chloro-4'-trifluoromethylphenoxy)-3,3-dimethyl phthalide], the half-life is, setting by setting: (pH 7) 4920 h; (pH 9) 1900 h.
For the compound `O=C1OCc2cc(Oc3ccc(C(F)(F)F)cc3Cl)ccc21` [CH2, H, reference compound], the half-life by setting is: (pH 7) 56.5 h; (pH 9) 14.5 h.
Turning to `CCC1(C)OC(=O)c2ccc(Oc3ccc(C(F)(F)F)cc3Cl)cc21` (centres unmarked) [C(CH3)(C2H5), H], the “Half-Life pH 7.0” value (pH 7) is given as “NDD”. The “Half-Life pH 9.0” value (pH 9) is given as “NDD”.
For the compound `CCC1(CC)OC(=O)c2ccc(Oc3ccc(C(F)(F)F)cc3Cl)cc21` [C(C2H5)2, H, 5-(2'-Chloro-4'-trifluoromethylphenoxy)-3,3-diethylphthalide], under “pH 7”, the “Half-Life pH 7.0” value is listed as “NDD”. Besides, the “Half-Life pH 9.0” value (pH 9) was “NDD”.
As for `COC1OC(=O)c2ccc(Oc3ccc(C(F)(F)F)cc3Cl)cc21` (centres unmarked) [CH(OCH3), H, reference compound], the half-life runs as follows: (pH 7) 17.2 h; (pH 9) 1.2 h.
